Experimental data: patent publication US8252826B2, “Cyclopentyl- and cycloheptylpyrazoles” (Hoffmann-La Roche Inc., priority 2010, dated 2012)
pIC50: −log10 of the molar value.

Biological target: T1, FXR ligand binding domain (Homo sapiens, UniProt Q96RI1)
T1 sequence (Q96RI1 211-483 limits assumed): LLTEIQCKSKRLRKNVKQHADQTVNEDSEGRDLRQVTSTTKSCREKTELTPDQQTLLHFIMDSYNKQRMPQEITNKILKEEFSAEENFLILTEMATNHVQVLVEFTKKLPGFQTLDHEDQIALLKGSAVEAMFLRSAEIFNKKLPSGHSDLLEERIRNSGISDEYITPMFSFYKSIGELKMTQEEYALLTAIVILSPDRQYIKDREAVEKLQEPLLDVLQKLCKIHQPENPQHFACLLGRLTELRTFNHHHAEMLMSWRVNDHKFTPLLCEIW
Assay: Radioligand binding assay (scintillation proximity radioligand displacement)
Method: Radioligand Binding Assay
Binding of test substances to the FXR ligand binding domain was assessed in a radioligand displacement assay. The assay was performed in a buffer consisting of 50 mM Hepes, pH 7.4, 10 mM NaCl, 5 mM MgCl2. […] All binding assays were performed in 96-well plates and the amount of bound ligand was measured on a Packard TopCount using OptiPlates (Packard). Dose response curves were performed within a range of concentration from 6×10^−9 M to 2.5×10^−5 M.

pIC50 | SMILES
6.28 | Cc1cc(C(=O)O)cc(C)c1OCC(c1c2c(nn1-c1ccc(Cl)cc1)CCCCC2)C1CCCCC1 (stereo not drawn) [Example 15, 4-{2-[2-(4-Chloro-phenyl)-2,4,5,6,7,8-hexahydro-cycloheptapyrazol-3-yl]-2-cyclohexyl-ethoxy}-3,5-dimethyl-benzoic acid]
5.77 | O=C(O)c1ccc(NC(=O)C(c2c3c(nn2-c2ccc(Cl)cc2)CCCCC3)C2CCCCC2)c(F)c1 (stereo not drawn) [Example 13, 4-{2-[2-(4-Chloro-phenyl)-2,4,5,6,7,8-hexahydro-cycloheptapyrazol-3-yl]-2-cyclohexyl-acetylamino}-3-fluoro-benzoic acid]
5.15 | COC(=O)c1ccc(NC(=O)C(c2c3c(nn2-c2ccc(Cl)cc2)CCCCC3)C2CCCCC2)c(F)c1 (stereo not drawn) [Example 12, 4-{2-[2-(4-Chloro-phenyl)-2,4,5,6,7,8-hexahydro-cycloheptapyrazol-3-yl]-2-cyclohexyl-acetylamino}-3-fluoro-benzoic acid methyl ester]
6.81 | Fc1cc(-c2nnn[nH]2)ccc1OCC(c1c2c(nn1-c1ccc(Cl)cc1)CCCCC2)C1CCCCC1 (stereo not drawn) [Example 16, 2-(4-Chloro-phenyl)-3-{1-cyclohexyl-2-[2-fluoro-4-(1H-tetrazol-5-yl)-phenoxy]-ethyl}-2,4,5,6,7,8-hexahydro-cycloheptapyrazole]
4.67 | N#Cc1ccc(OCC(c2c3c(nn2-c2ccc(Cl)cc2)CCCCC3)C2CCCCC2)c(F)c1 (stereo not drawn) [Example 14, 4-{2-[2-(4-Chloro-phenyl)-2,4,5,6,7,8-hexahydro-cycloheptapyrazol-3-yl]-2-cyclohexyl-ethoxy}-3-fluoro-benzonitrile]
5.62 | O=C(NC1CCCCC1)C(c1c2c(nn1-c1ccc(Cl)cc1)CCCCC2)C1CCCCC1 (stereo not drawn) [Example 11, 2-[2-(4-Chloro-phenyl)-2,4,5,6,7,8-hexahydro-cycloheptapyrazol-3-yl]-2,N-dicyclohexyl-acetamide]

More lines, now with the values behind:

SMILES | pIC50
N#Cc1ccc(OCC(c2c3c(nn2-c2ccc(Cl)cc2)CCC3)C2CCCCC2)c(F)c1 (stereo not drawn) [Example 3, 4-{2-[2-(4-Chloro-phenyl)-2,4,5,6-tetrahydro-cyclopentapyrazol-3-yl]-2-cyclohexyl-ethoxy}-3-fluoro-benzonitrile] | 5.89
O=C(O)c1ccc(NC(=O)C(c2c3c(nn2-c2ccc(Cl)cc2)CCC3)C2CCCCC2)c(F)c1 (stereo not drawn) [Example 6, 4-{2-[2-(4-Chloro-phenyl)-2,4,5,6-tetrahydro-cyclopentapyrazol-3-yl]-2-cyclohexyl-acetylamino}-3-fluoro-benzoic acid] | 6.22
CCOC(=O)C(C)(C)Oc1ccc(NC(=O)C(c2c3c(nn2-c2ccc(Cl)cc2)CCCCC3)C2CCCCC2)c(F)c1 (stereo not drawn) [Example 9, 2-(4-{2-[2-(4-Chloro-phenyl)-2,4,5,6,7,8-hexahydro-cycloheptapyrazol-3-yl]-2-cyclohexyl-acetylamino}-3-fluoro-phenoxy)-2-methyl-propionic acid ethyl ester] | 4.67
Fc1cc(-c2nnn[nH]2)ccc1OCC(c1c2c(nn1-c1ccc(Cl)cc1)CCC2)C1CCCCC1 (stereo not drawn) [Example 5, 2-(4-Chloro-phenyl)-3-{1-cyclohexyl-2-[2-fluoro-4-(2H-tetrazol-5-yl)-phenoxy]-ethyl}-2,4,5,6-tetrahydro-cyclopentapyrazole] | 7.04
O=C(O)c1ccc(OCC(c2c3c(nn2-c2ccc(Cl)cc2)CCC3)C2CCCCC2)nc1 (stereo not drawn) [Example 7, 6-{2-[2-(4-Chloro-phenyl)-2,4,5,6-tetrahydro-cyclopentapyrazol-3-yl]-2-cyclohexyl-ethoxy}-nicotinic acid] | 7.28
O=C(O)c1ccc(SCC(c2c3c(nn2-c2ccc(Cl)cc2)CCC3)C2CCCCC2)cc1 (stereo not drawn) [Example 8, 4-{2-[2-(4-Chloro-phenyl)-2,4,5,6-tetrahydro-cyclopentapyrazol-3-yl]-2-cyclohexyl-ethylsulfanyl}-benzoic acid] | 5.96
CC(C)(Oc1ccc(NC(=O)C(c2c3c(nn2-c2ccc(Cl)cc2)CCCCC3)C2CCCCC2)c(F)c1)C(=O)O (stereo not drawn) [Example 10, 2-(4-{2-[2-(4-Chloro-phenyl)-2,4,5,6,7,8-hexahydro-cycloheptapyrazol-3-yl]-2-cyclohexyl-acetylamino}-3-fluoro-phenoxy)-2-methyl-propionic acid] | 5.89
O=C(NC1CCCCC1)C(c1c2c(nn1-c1ccc(Cl)cc1)CCC2)C1CCCCC1 (stereo not drawn) [Example 4, 2-[2-(4-Chloro-phenyl)-2,4,5,6-tetrahydro-cyclopentapyrazol-3-yl]-2,N-dicyclohexyl-acetamide] | 5.48
COC(=O)c1cc(C)c(OCC(c2c3c(nn2-c2ccc(Cl)cc2)CCC3)C2CCCCC2)c(C)c1 (stereo not drawn) [Example 1, 4-{2-[2-(4-Chloro-phenyl)-2,4,5,6-tetrahydro-cyclopentapyrazol-3-yl]-2-cyclohexyl-ethoxy}-3,5-dimethyl-benzoic acid methyl ester] | 4.54
